According to PMC3071374, “High Throughput Screens Yield Small Molecule Inhibitors of Leishmania CRK3:CYC6 Cyclin-Dependent Kinase” (PLoS Neglected Tropical Diseases, 2011):

What was measured:
CRK3:CYC6 = details: peptide as substrate of CRK3:CYC6
Method: (§1) Protein kinase assays were performed in 384-well non-treated black plates (Nunc) in a final volume of 20 µl. Each assay point contained 1.25 ng of co-expressed Leishmania CRK3:CYC6 protein kinase complex. […] The enzyme complex, peptide and ATP were made up in the IMAP complete reaction buffer (CRB) (10 mM Tris-HCl, pH 7.2, 10 mM MgCl2, 0.05% NaN3, 0.01% Tween-20 and 1 mM DTT). Assays were carried out for 1 hour 20 minutes at room temperature and the reaction stopped by the addition of 50 µl of the IMAP progressive binding reagent (Proprietary buffer from Molecular Devices plus tri-valent metal-containing nanoparticles). The assay was left to proceed for a further 1 hour 20 minutes at room temperature and the fluorescence polarization determined by a Perkin Elmer Fusion microplate reader, with excitation at 485 nm and emission at 535 nm.
The IMAP fluorescent polarisation assay was selected for the high throughput screen. First a substrate finder assay was carried out with 61 potential serine/threonine protein kinase substrates. […] In order to establish the quantity of CRK3:CYC6 to use in the IMAP HTS assays, a two-fold enzyme titration was carried out (Figure S2 in Supporting Information Text S1).

WT promastigote L. major = test: L. major promastigote growth inhibition assay (resazurin); assay type: cell-based; details: BioFocus SFK48 HTS hits; 5 days at 25°C; read-out: IC50 against WT promastigote L. major
Method: L. major wild type promastigotes (Friedlin strain: WHO designation MHOM/JL/81/Friedlin) were grown at 25°C in HOMEM medium (Invitrogen cat no. 041-94699111) supplemented with 10% (v/v) heat inactivated foetal calf serum (HIFCS) and 1% (v/v) penicillin/streptomycin antibiotics.
CRK3 inhibitors were diluted into HOMEM medium supplemented with 10% HIFCS at twice the final screening concentration. Five-fold or ten-fold serial dilutions were carried out into HOMEM medium supplemented with 10% HIFCS. 100 µl of each drug concentration were added to a 96 well plate in duplicate. 100 µl of five-fold or ten-fold serial dilutions of 1 mM Pentamidine (Sigma) and an equivalent volume of 100% DMSO were included as positive and negative controls, in duplicate, respectively. L. major promastigote cells were diluted to a cell density of 2×10^6 cells ml^−1 in HOMEM media supplemented with 10% HIFCS and 100 µl added to all wells in 96 well plates. Plates were sealed with parafilm and incubated for 5 days at 25°C. After 5 days, 20 µl of filter sterile resazurin solution (12.5 mg resazurin salt in 100 ml PBS) (Sigma) was added to each of the wells and the plate incubated for a further 24 hours at 25°C. Fluorescence was measured using an Envision plate reader (Perkin Elmer) at 540 nm excitation wavelength and 590 nm emission wavelength.

Leishmania CRK3:CYC6 = Leishmania CRK3:CYC6 (Leishmania major, UniProt O96526); test: IMAP fluorescence polarisation high throughput screen of CRK3:CYC6; assay type: biochemical, L. major; set-up: made in house; host or cells: E. coli BL21 (DE3) pLys-S; details: BioFocus SFK48 library, primary concentration 20 µM
Method: as §1

human CDK2:CycA = human CDK2:CycA (Homo sapiens, UniProt P24941); test: Mammalian protein kinase assay / counter screen, CDK2:CYCA; assay type: biochemical; details: BioFocus SFK48 library, counter screen
Method: Leishmania CRK3:CYC6 protein kinase assays were performed in 96-well microtiter plates in a final volume of 25 µl. Each assay point contained 7.5 ng of co-expressed histidine-tagged CRK3:CYC6 protein kinase complex (hereafter referred to as CRK3:CYC6) diluted in enzyme dilution buffer (EDB) (20 mM Tris-HCl pH 7.2, 0.5 mg ml^−1 BSA, 2.5% glycerol and 0.006% Brij-35). Assays were performed using the assay development buffer (ADB) (20 mM MOPS, pH 7.0, 25 mM β-glycerophosphate, 5 mM EGTA, 1 mM NaVO3, 1 mM DTT and 15 mM MgCl2) supplemented with 100 µM ATP, 0.5 µCi of γ-^32P ATP per reaction and histone H1 as a substrate used at 0.4 mg ml^−1. Two and three-fold titrations were set up to determine the concentration of enzyme to be used per assay point (7.5 ng) and to determine the concentrations of selected inhibitors required for 50% inhibition of Leishmania CRK3:CYC6 protein kinase activity (IC50 values), respectively. For IC50 determinations, assay mixes contained DMSO to a final concentration of 2%. Mammalian protein kinase assays were carried out according to the assay protocols developed at Cyclacel. Assays were carried out for 30 minutes at 30°C before stopping the reaction by the addition of an equal volume (25 µl) of 75 mM orthophosphoric acid. Samples were spotted onto a p81 cellulose filterplate (Nunc) and a vacuum applied. Wells were washed 3×200 µl with 75 mM phosphoric acid and the bottom of the plate sealed. 50 µl of Microscint 40 (Perkin Elmer) was added per well before incorporation of radioactivity was determined on a Topcount microplate scintillation counter.

CRK3:CYC6, sequence (O96526 entry or part of it): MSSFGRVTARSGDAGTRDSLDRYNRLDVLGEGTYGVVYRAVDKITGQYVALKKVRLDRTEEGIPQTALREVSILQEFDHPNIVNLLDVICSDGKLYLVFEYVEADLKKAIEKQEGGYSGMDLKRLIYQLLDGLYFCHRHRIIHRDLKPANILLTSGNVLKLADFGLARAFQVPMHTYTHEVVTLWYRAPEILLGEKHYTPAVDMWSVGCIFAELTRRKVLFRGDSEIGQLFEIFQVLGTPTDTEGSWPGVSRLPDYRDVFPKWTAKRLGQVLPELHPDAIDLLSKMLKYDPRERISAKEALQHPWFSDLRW
Leishmania CRK3:CYC6, sequence (O96526 entry or part of it): as above

**Q.** For RRRFRPASPLRGPPK [DYRKtide], which ΔmP signal (CRK3:CYC6) is on record?
**A.** 190 mP

**Q.** Which results are given for `COc1ccc(CC(N)c2csc(NC(=O)Nc3cc(OC)ccc3OC)n2)cc1` (centres unmarked) [Compound 45]?
**A.** IC50 (WT promastigote L. major): 6.8 µM; activity towards CRK3:CYC6 in the primary screen (Leishmania CRK3:CYC6): inactive; activity towards CDK2:CycA in the primary screen (human CDK2:CycA): inactive

**Q.** How did the IC50 (WT promastigote L. major) turn out when `NC(c1csc(NC(=O)Nc2cccc(Cl)c2)n1)c1ccccc1Cl` (centres unmarked) [Compound 43] was run?
**A.** 12.5 µM

**Q.** And the “activity towards CRK3:CYC6 in the primary screen” value (“activity towards CRK3:CYC6” below) (Leishmania CRK3:CYC6)?
**A.** active

**Q.** And the “activity towards CDK2:CycA in the primary screen” value (from here on “activity towards CDK2:CycA”) (human CDK2:CycA)?
**A.** active

**Q.** How did the ΔmP signal (CRK3:CYC6) turn out when “PKTPKKAKKL [Histone H1 derived (aa 9–18)]” was run?
**A.** 280 mP

**Q.** FLAKSFGSPNRAYKK [CDK7 derived] was tested. Which ΔmP signal (CRK3:CYC6) did it give?
**A.** 180 mP

**Q.** With `CN(C)Cc1csc(NC(=O)Nc2ccccc2Oc2ccccc2)n1` [Compound 44] as the compound, how does the IC50 (WT promastigote L. major) read?
**A.** 14.4 µM

**Q.** And the “activity towards CRK3:CYC6” value (Leishmania CRK3:CYC6)?
**A.** active

**Q.** What about the “activity towards CDK2:CycA” value (human CDK2:CycA) of the same compound?
**A.** active

**Q.** How did the IC50 (WT promastigote L. major) turn out when `COc1ccc(CNC(=O)Nc2nc(C(N)CCc3ccccc3)cs2)cc1` (centres unmarked) [Compound 46] was run?
**A.** 7.8 µM

**Q.** And the “activity towards CRK3:CYC6” value (Leishmania CRK3:CYC6)?
**A.** inactive

**Q.** What about the “activity towards CDK2:CycA” value (human CDK2:CycA) of the same compound?
**A.** inactive

**Q.** Which ΔmP signal (CRK3:CYC6) does the source give for GGGRSPGRRRRK [Generic Sequence] here?
**A.** 310 mP

**Q.** For GGGPATPKKAKKL [Histone H1 derived], which ΔmP signal (CRK3:CYC6) is on record?
**A.** 295 mP
